Test results: patent publication US20140051575A1 (priority 2011, published 2014)

Columns and labels:
[1] = Measurement of logP values by HPLC on reversed phase columns (EEC directive 79/831 Annex V.A8); type: physicochemical; settings: pH 2.7, 0.1% formic acid in water / acetonitrile gradient, calibration with alkan-2-ones
Procedure: Measurement of logP values was performed according EEC directive 79/831 Annex V.A8 by HPLC (High Performance Liquid Chromatography) on reversed phase columns with the following methods:
Measurement of LC-MS was done at pH 2.7 with 0.1% formic acid in water and with acetonitrile (contains 0.1% formic acid) as eluent with a linear gradient from 10% acetonitrile to 95% acetonitrile.
Calibration was done with not branched alkan2-ones (with 3 to 16 carbon atoms) with known logP-values (measurement of logP values using retention times with linear interpolation between successive alkanones). lambda-maX-values were determined using UV-spectra from 200 nm to 400 nm and the peak values of the chromatographic signals.

[2] = system: Plasmopara viticola; assay: Plasmopara test (grapevines)/preventive; type: in vivo; settings: preventive spray, 10 ppm of active ingredient, evaluated 6 days after inoculation, 0% = untreated control, 100% = no disease
Procedure: To produce a suitable preparation of active compound, 1 part by weight of active compound is mixed with the stated amounts of solvent and emulsifier, and the concentrate is diluted with water to the desired concentration.
To test for preventive activity, young plants are sprayed with the preparation of active compound at the stated rate of application. After the spray coating has dried on, the plants are inoculated with an aqueous spore suspension of Plasmopara viticola and then remain for 1 day in an incubation cabinet at approximately 20° C. and a relative atmospheric humidity of 100%. The plant is subsequently placed for 4 days in a greenhouse at approximately 21° C. and a relative atmospheric humidity of approximately 90%. The plants are then misted and placed for 1 day in an incubation cabinet.
The test is evaluated 6 days after the inoculation. 0% means an efficacy which corresponds to that of the untreated control, while an efficacy of 100% means that no disease is observed.

[3] = system: Pythium ultimum; assay: Pythium test (cotton)/seed treatment; type: in vivo; settings: 50 g/dt seed of active ingredient, greenhouse 7 days, 100% = all seedlings have emerged
Procedure: The test is performed under greenhouse conditions.
Cotton seeds, treated with the active compound or compound combinations, solved in N-methyl-2-pyrrolidon and diluted with water to the desired dosages, were sown in 6*6 cm pots containing 4 cm of a 1:1 mix of steamed field soil and sand.
Perlite was incubated with mycelium fragments of Pythium ultimum. 1 ml of infected perlite was scattered between the treated cotton seeds. Seeds were then covered by light expanded clay aggregate. Pots were incubated in the greenhouse 7 days at 20° C. and 80% relative humidity.
Assessment consisted of counting of emerged seedlings. 0% means an efficacy which corresponds to that of the control, while an efficacy of 100% means that all seedlings have emerged.

[4] = system: Phytophthora infestans; type: in vivo; settings: tomato plants, preventive spray, 500 ppm of active ingredient, evaluated 7 days after inoculation; 0% = untreated control, 100% = no disease

Row | SMILES | Log P [1] | Eff. % [2] | Eff. % [3] | Eff. % [4]
1 | CC(OCC1CC1)C(=O)Nc1cccc(CON=C(c2ccccc2)c2nnnn2C)n1 (stereo not drawn) [Example 2] | 3.55 | 95% | 100% | 
2 | CC(OCC1CC1)C(=O)Nc1nc(CON=C(c2ccccc2)c2nnnn2C)cs1 (stereo not drawn) [Example 14] | 3.29 | 97% | 100% | 100%
3 | Cc1nnnn1C(=NOCc1csc(NC(=O)C(C)OCC2CC2)n1)c1ccccc1 (stereo not drawn) [Example 34] | 3.35 | 94% | 92% | 100%
4 | Cn1nnnc1C(=NOCc1csc(NC(=O)COCc2ccccc2)n1)c1ccccc1 [Example 50] | 3.37 | 100% | 93% | 100%
5 | Cn1nnnc1C(=NOCc1cccc(NC(=O)OCCCOC2CCCC2)n1)c1ccccc1 [Example 98] | 4.14 | 81% |  | 100%
